In paper PMC8341105, “Mapping the energy landscape of protein–ligand binding via linear free energy relationships determined by protein NMR relaxation dispersion” (RSC Chemical Biology, 2020):
Values joined by “and” are separate entries in the source; they are usually repeats but may differ in a detail not shown here. Equal entries are not always repeated. Where two headings read alike, the source gives them in different places.

Experiments:
galectin-3C [1] = target: T1, galectin-3C (Homo sapiens, UniProt P17931); experiment: 15N CPMG relaxation dispersion of ligand binding kinetics; details: for kex, Group 1: Group 1 residues fitted jointly: slow exchange corresponding to ligand binding/unbinding; for kex, Group 2: Group 2 residues fitted jointly: fast conformational exchange independent of ligand binding/unbinding; for Population (relative population of the bound state, pB), Group 1: global fit of Group 1 residues, near-saturated NMR sample
T1 construct: the carbohydrate-recognition domain of galectin-3 (galectin-3C); made in house
T1 sequence (P17931 118-248 limits assumed): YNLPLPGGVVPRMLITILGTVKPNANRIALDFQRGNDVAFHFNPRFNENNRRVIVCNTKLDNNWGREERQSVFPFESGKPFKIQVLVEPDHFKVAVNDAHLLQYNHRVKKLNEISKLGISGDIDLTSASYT
Text: We measured equilibrium exchange between free and ligand-bound states of galectin-3C using ^15N CPMG relaxation dispersion experiments[15] acquired on near-saturated samples at two static magnetic field strengths. […] We analyzed the relaxation dispersion profiles using a two-state exchange model (eqn (1)–(4)).[18,27,28] […] All residues within a given group were then fitted jointly to yield global exchange parameters, kex and p, and residue-specific ΔδCPMG (ESI, ^† Table S1 lists all residues included in the fit for the two groups of each complex together with the fitted parameters). In the following, we focus on the exchange related to ligand binding and release.
In the present case, we determined all exchange parameters directly from the relaxation dispersion data. […] This requires that the ligand and protein concentrations are measured accurately, Kd is known from previous experiments, and the NMR spectra of the free and bound states are available; these requirements are easily met in most cases. While the amplitude and shape of the relaxation dispersion profile depends intricately on the populations, rates, and chemical shift difference, it may be expected that off-rates can be determined for systems with dissociation constants in the range of 0.1 μM to 1 mM.
^15N-Labeled galectin-3C samples were prepared by extensive dialysis (Slide-A-Lyzer MINI Dialysis, ThermoScientific) against 5 mM 4-(2-hydroxyethyl)-1-piperazinethanesulfonic acid (HEPES) buffer to remove all lactose, followed by centrifugation at 14 000 rpm for 5 minutes to remove any aggregates. The protein concentration was determined by UV absorption at 280 nm, as described before.[33] […] Ligand–galectin-3C complexes were prepared by titrating freshly sonicated stock solutions of the ligands into apo galectin-3C samples while monitoring the galectin-3C chemical shifts in the ^15N heteronuclear single-quantum correlation (HSQC) spectrum. At the end of each titration, the total amount of added DMSO in the L2 and L3 samples was 2% (v/v).
Relaxation-compensated CPMG relaxation dispersion experiments[15] were performed using the constant-time approach[34] covering 18–24 different refocusing frequencies, νcp. An equilibration period of 5 ms was added prior to the CPMG refocusing pulse train to ensure that the initial magnetizations reflect the relative populations of the exchanging states.[35] […] Spectra were processed using NMRPipe.[37] The processing protocol involved a solvent filter, cosine-squared apodization functions, zero filling to twice the number of increments in all dimensions, and a polynomial baseline correction in the ^1H dimension. Relaxation rates were extracted using PINT, which employs line-shape fitting to resolve overlapped peaks.[38] Peak intensities were evaluated using a weighted sum of Lorentzian and Gaussian line shapes. Standard deviations were determined by propagating the errors of intensities estimated from the baseplane noise. Error estimates are reported as one standard deviation.
The relaxation dispersion data were analyzed using CPMGfit v2.22, an in-house Matlab program.

galectin-3C [2] = target: T1, galectin-3C; design: method as in PMID 20873837; details: ITC under sample conditions near-identical to those used for CPMG dispersion experiments; determined previously; cited from earlier work
[3] = k on is determined from Kd and koff (kon = koff/Kd)
[4] = koff = kex(1 − pB), 15N CPMG relaxation dispersion, 301 K, near-saturated samples

Compound | kex, Group 1 (galectin-3C [1]) [s⁻¹] | kex, Group 2 (galectin-3C [1]) [s⁻¹] | Population (relative population of the bound state, pB), Group 1 (galectin-3C [1]) | kon (galectin-3C [1]; [3]) | koff (galectin-3C [1]; [4]) [s⁻¹] | kon (galectin-3C [1]; k on is determined from Kd and koff (kon = koff/Kd), read-out: k on) [M⁻¹ s⁻¹] | koff (galectin-3C [1]; koff = kex(1 − pB), 15N CPMG relaxation dispersion, 301 K, near-saturated samples, read-out: k off) [s⁻¹] | Kd (galectin-3C [2]) [µM] | koff (galectin-3C [1]) [s⁻¹] | kon (galectin-3C [1]) [M⁻¹ s⁻¹]
OC[C@H]1O[C@@H](S[C@@H]2O[C@H](CO)[C@@H](O)[C@H](O)[C@H]2O)[C@H](O)[C@@H](n2cc(-c3cccc(F)c3)nn2)[C@H]1O [mL4, meta-fluoro-phenyltriazolyl-galactosylthioglucoside] | 808 ± 55 | 4804 ± 448 |  |  |  |  |  |  | 8 ± 1 | 3.9e+06 ± 700000
OC[C@H]1O[C@@H](S[C@@H]2O[C@H](CO)[C@@H](O)[C@H](O)[C@H]2O)[C@H](O)[C@@H](n2cc(-c3ccccc3F)nn2)[C@H]1O [oL4, ortho-fluoro-phenyltriazolyl-galactosylthioglucoside] | 1210 ± 209 | 15800 ± 386 | 0.97 ± 0.01 |  |  | 4.4e+06 ± 1.1e+06 | 32 ± 5 |  |  | 
OC[C@H]1O[C@@H](S[C@@H]2O[C@H](CO)[C@@H](O)[C@H](O)[C@H]2O)[C@H](O)[C@@H](n2cc(-c3ccc(F)cc3)nn2)[C@H]1O [pL4, para-fluoro-phenyltriazolyl-galactosylthioglucoside] | 859 ± 115 | 8386 ± 691 | 0.99 ± 0.01 |  |  |  |  | 2.5 ± 0.3 | 13 ± 1 | 5.2e+06 ± 800000

Second part, led by results:

kex, Group 1 (galectin-3C [1]) [s⁻¹] | kex, Group 2 (galectin-3C [1]) [s⁻¹] | Population (relative population of the bound state, pB), Group 1 (galectin-3C [1]) | kon (galectin-3C [1]; [3]) | koff (galectin-3C [1]; [4]) [s⁻¹] | kon (galectin-3C [1]; k on is determined from Kd and koff (kon = koff/Kd), read-out: k on) [M⁻¹ s⁻¹] | koff (galectin-3C [1]; koff = kex(1 − pB), 15N CPMG relaxation dispersion, 301 K, near-saturated samples, read-out: k off) [s⁻¹] | Compound | Kd (galectin-3C [2]) [µM] | koff (galectin-3C [1]) [s⁻¹] | kon (galectin-3C [1]) [M⁻¹ s⁻¹]
123 ± 20 | 4110 ± 760 | 0.93–0.94 and 0.94 ± 0.01 | 2.4 ± 0.4 10^6 M^−1 s^−1 | 8 ± 1 |  |  | 3′-(4-methoxy-2,3,5,6-tetrafluorobenzamido)-N-acetyllactosamine [Ligand L3] | 3.3 ± 0.1 |  | 
385 ± 126 | 5370 ± 850 | 0.93–0.94 and 0.93 ± 0.04 | 1.6 ± 0.5 10^6 M^−1 s^−1 | 28 ± 9 |  |  | 3′-benzamido-N-acetyllactosamine [Ligand L2] | 18.2 ± 0.2 |  | 
